Laboratory results from patent US12134620B2 (ARAXES PHARMA LLC, priority 2018, dated 2024).

Molecular target: T1, KRAS G12C 1-169, his-tagged protein, GDP-loaded (Homo sapiens, UniProt P01116, G12C)
T1 construct: KRAS G12C 1-169, his-tagged protein, GDP-loaded; His tag
Assay: Biochemical assay: covalent modification of KRAS G12C, analysed by mass spectrometry (RapidFire/TOF or Q-Exactive); note: time not given here
Format: binding
Settings: Modification activity, modification percentage from MS peak intensities
Procedure, shortened: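 Covalent adduct formation was quantified by intact-protein mass spectrometry, either TOF or C4 LC-Q Exactive Plus, as percent modified versus unmodified protein after deconvolution. Compounds at 8 or 32 μM final were incubated with 0.5 or 2 μM GDP-bound KRAS G12C(1-169)-His in Hepes/NaCl/MgCl2 buffer before acid quench.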

Row | SMILES | Binding %
1 | C=CC(=O)N1CC2(CCN(c3nc(OC[C@@H]4CCCN4C)nc(N4CCCC(O)C4)c3C#N)C2)C1 (stereo partly drawn) [Compound I-13, 4-(2-acryloyl-2,6-diazaspiro[3.4]octan-6-yl)-6-(3-hydroxypiperidin-1-yl)-2-(((S)-1-methylpyrrolidin-2-yl)methoxy)pyrimidine-5-carbonitrile] | + (+ indicates binding activity greater than 0% and up to 50%)
2 | C=CC(=O)N1CC2(CCN(c3nc(OCc4ccccn4)nc(-c4c(C)ccc5[nH]ncc45)c3C#N)C2)C1 [Compound I-15, 4-(2-acryloyl-2,6-diazaspiro[3.4]octan-6-yl)-6-(5-methyl-1H-indazol-4-yl)-2-(pyridin-2-ylmethoxy)pyrimidine-5-carbonitrile] | +++ (+++ indicates binding activity greater than 85%)
3 | C=CC(=O)N1CC2(CCN(c3nc(OCc4cccc(C(F)(F)F)c4)nc(-c4c(C)ccc5cnn(C)c45)c3C#N)C2)C1 [Compound I-158, 4-(2-acryloyl-2,6-diazaspiro[3.4]octan-6-yl)-6-(1,6-dimethyl-1H-indazol-7-yl)-2-((3-(trifluoromethyl)ben-zyl)oxy)pyrimidine-5-carbonitrile] | ++ (++ indicates binding activity from 50 to 85%)
4 | C=CC(=O)N1CC2(CCN(c3nc(OCCN4CC(F)(F)C4)nc(-c4c(C)ccc5[nH]ncc45)c3C#N)C2)C1 [Compound I-87, 4-(2-acryloyl-2,6-diazaspiro[3.4]octan-6-yl)-2-(2-(3,3-difluoroazetidin-1-yl)ethoxy)-6-(5-methyl-1H-indazol-4-yl)pyrimidine-5-carbonitrile] | ++ (++ indicates binding activity from 50 to 85%)
5 | C=CC(=O)N1CC2(CCN(c3nc(OC[C@@H]4CCN(C)C4)nc(-c4c(C)ccc5[nH]ncc45)c3C#N)C2)C1 [Compound I-37, 4-(2-acryloyl-2,6-diazaspiro[3.4]octan-6-yl)-6-(5-methyl-1H-indazol-4-yl)-2-(((R)-1-methylpyrrolidin-3-yl)methoxy)pyrimidine-5-carbonitrile] | + (+ indicates binding activity greater than 0% and up to 50%)
6 | C=CC(=O)N1CC2(CCN(c3ncnc(-c4c(C)ccc5[nH]ncc45)c3C#N)CC2)C1C(C)C (stereo not shown) [Compound I-281, 4-(2-acryloyl-1-isopropyl-2,7-diazaspiro[3.5]nonan-7-yl)-6-(5-methyl-1H-indazol-4-yl)pyrimidine-5-carbonitrile] | + (+ indicates binding activity greater than 0% and up to 50%)
7 | C=CC(=O)N1CC2(CCN(c3nc(N4CCOCC4)nc(-c4c(C)ccc5[nH]nc(N)c45)c3C#N)C2)C1 [Compound I-33, 4-(2-acryloyl-2,6-diazaspiro[3.4]octan-6-yl)-6-(3-amino-5-methyl-1H-indazol-4-yl)-2-morpholinopyrimidine-5-carbonitrile] | +++ (+++ indicates binding activity greater than 85%)
8 | C=CC(=O)N1CC2(CCN(c3nc(OCc4ccccn4)nc(-c4cc(O)cc5ccccc45)c3C#N)C2)C1 [Compound I-114, 4-(2-acryloyl-2,6-diazaspiro[3.4]octan-6-yl)-6-(3-hydroxynaphthalen-1-yl)-2-(pyridin-2-ylmethoxy)pyrimidine-5-carbonitrile] | +++ (+++ indicates binding activity greater than 85%)
9 | C=CC(=O)N1CC2(CCN(c3ncnc(N4CCCC4CO)c3C#N)C2)C1 (stereo not shown) [Compound I-246, 4-(2-acryloyl-2,6-diazaspiro[3.4]octan-6-yl)-6-(2-(hydroxymethyl)pyrro-lidin-1-yl)pyrimidine-5-carbonitrile] | + (+ indicates binding activity greater than 0% and up to 50%)
10 | C=CC(=O)N1CC2(CCN(c3cnc(OCCc4ccccc4)c(-c4c(C)ccc5cnn(C)c45)c3C#N)C2)C1 [Compound I-222, 5-(2-acryloyl-2,6-diazaspiro[3.4]octan-6-yl)-3-(1,6-dimethyl-1H-indazol-7-yl)-2-phenethoxyisonicoti-nonitrile] | ++ (++ indicates binding activity from 50 to 85%)
11 | C=CC(=O)N1CC2(CCN(c3ncnc(-c4c(C)ccc5[nH]ncc45)c3C#N)CC2)C1 [Compound I-236, 4-(2-acryloyl-2,7-diazaspiro[3.5]nonan-7-yl)-6-(5-methyl-1H-indazol-4-yl)pyrimidine-5-carbonitrile] | + (+ indicates binding activity greater than 0% and up to 50%)
12 | C=CC(=O)N1CC2(CCN(c3nc(OC[C@@H]4CCCN4C)nc(Nc4ccccc4C(N)=O)c3C#N)C2)C1 [Compound I-36, (S)-2-((6-(2-acryloyl-2,6-diazaspiro[3.4]octan-6-yl)-5-cyano-2-((1-methylpyrrolidin-2-yl)methoxy)pyrimidin-4-yl)amino)benzamide] | + (+ indicates binding activity greater than 0% and up to 50%)
13 | C=CC(=O)N1CC2(CCN(c3nc(OC[C@@H]4CCCN4C)nc(-c4n[nH]c5ccccc45)c3C#N)C2)C1 [Compound I-90, (S)-4-(2-acryloyl-2,6-diazaspiro[3.4]octan-6-yl)-6-(1H-indazol-3-yl)-2-((1-methylpyrrolidin-2-yl)methoxy)pyrimidine-5-carbonitrile] | + (+ indicates binding activity greater than 0% and up to 50%)
14 | Cc1ccc2[nH]ncc2c1-c1nc(OC[C@@H]2CCCN2C)nc(N2CCC3(CN(C(=O)/C=C/CN(C)C)C3)C2)c1C#N [Compound I-204, 4-(2-((E)-4-(dimethylamino)but-2-enoyl)-2,6-diazaspiro[3.4]octan-6-yl)-6-(5-methyl-1H-indazol-4-yl)-2-(((S)-1-methylpyrrolidin-2-yl)methoxy)pyrimidine-5-carbonitrile] | + (+ indicates binding activity greater than 0% and up to 50%)
15 | C=CC(=O)N1CC2(CCN(c3ncnc(Oc4cccc(C(N)=O)c4)c3C#N)C2)C1 [Compound I-255, 3-((6-(2-acryloyl-2,6-diazaspiro[3.4]octan-6-yl)-5-cyanopyrimidin-4-yl)oxy)benzamide] | + (+ indicates binding activity greater than 0% and up to 50%)
16 | C=CC(=O)N1CC2(CCN(c3cc(-c4c(C)ccc5cn[nH]c45)ncn3)C2)C1 [Compound I-226, 1-(6-(6-(6-methyl-1H-indazol-7-yl)pyrimidin-4-yl)-2,6-diazaspiro[3.4]octan-2-yl)prop-2-en-1-one] | + (+ indicates binding activity greater than 0% and up to 50%)
17 | C=CC(=O)N1CC2(CCN(c3nc(OCc4ccc(C(F)(F)F)cc4)nc(-c4c(C)ccc5cnn(C)c45)c3C#N)C2)C1 [Compound I-157, 4-(2-acryloyl-2,6-diazaspiro[3.4]octan-6-yl)-6-(1,6-dimethyl-1H-indazol-7-yl)-2-((4-(trifluoromethyl)ben-zyl)oxy)pyrimidine-5-carbonitrile] | ++ (++ indicates binding activity from 50 to 85%)
18 | C=CC(=O)N1CC2(CCN(c3ncnc(-c4c(C)ccc5[nH]ncc45)c3C(N)=O)C2)C1 [Compound I-253, 4-(2-acryloyl-2,6-diazaspiro[3.4]octan-6-yl)-6-(5-methyl-1H-indazol-4-yl)pyrimidine-5-carboxamide] | + (+ indicates binding activity greater than 0% and up to 50%)
19 | C=CC(=O)N1CC2(CCN(c3nc(OCc4cnc(C)nc4)nc(-c4c(C)ccc5[nH]ncc45)c3C#N)C2)C1 [Compound I-171, 4-(2-acryloyl-2,6-diazaspiro[3.4]octan-6-yl)-6-(5-methyl-1H-indazol-4-yl)-2-((2-methylpyrimidin-5-yl)methoxy)pyrimidine-5-carbonitrile] | +++ (+++ indicates binding activity greater than 85%)
